Data on twelve compounds can be found in article PMC7583830 (Molecules, 2020).

“And” between values parts separate entries of the source, which are not always exact repeats. Identical values can stand only once. “Also recorded” adds a separate entry of the source. Where a SMILES comes first, the peptide text is derived from it. Where no end group is shown, it is not given here. [ ]: non-standard residue; d: D form. The star is where a group is joined. DOTA = O=C(O)CN1CCN(CC(=O)O)CCN(CC(=O)*)CCN(CC(=O)O)CC1; NMeNle = CCCC[C@H](NC)C(=O)O

Data set [1] can be described thus: Stability in fresh human serum (radio-HPLC). As to conditions: 24 h incubation, 37 °C. It is filed as in vitro ADME. On the procedure:
In vitro stability studies for the characterization of the metabolic stability of the radiolabeled peptide analogs in human serum were carried out with [^177Lu]Lu-1, [^177Lu]Lu-M1, [^177Lu]Lu-M2, [^177Lu]Lu-M3 and [^177Lu]Lu-M4 (n = 2). Additional stability studies in rat liver and kidney homogenates were performed for [^177Lu]Lu-1 (n = 2). Tissue homogenates were prepared from dissected organs by homogenization for 1 min at RT (IKA-Werke, Staufen, Germany) in 20 mM HEPES buffer pH 7.3 (30% v/v). The radioligands were incubated in the different media at a concentration of 500 pmol/mL (corresponding to an activity of 6–11 MBq). After incubation at 37 °C at different time points for up to 24 h, a 100 µl sample was taken in duplicates and analyzed by HPLC. Samples obtained from human serum and rat homogenates were treated with ACN at a ratio of 1:1.5 (v/v) to precipitate proteins, centrifuged (14,000 rpm, 2 min, centrifuge 5424, Eppendorf AG, Germany) and diluted with water at a ratio of 1:1 (v/v). A 100 µl aliquot of this solution was injected into the radio HPLC system. The degradation of the radioligand was evaluated based on the radiochemical purity after radiolabeling and the percentage of intact radiopeptide observed during incubation in the different media.

Data set [2] can be described thus: Distribution coefficient (logD) in octanol/PBS. As to conditions: octanol/PBS pH 7.4; read-out: logD. It is filed as physicochemical. On the procedure:
The mixture was vigorously vortexed at room temperature over a period of 15 min using a small shaker (MS3 Basic, IKA, Staufen, Germany) with speed of 1500 rpm.

The nature of data set [3]: Protein binding in human serum by size exclusion chromatography. As to conditions: 24 h incubation. Type of data set: in vitro ADME. On the procedure: For protein binding assessment, the radiolabeled DOTA-peptides were incubated in fresh human serum at 37 °C (500 pmol/mL, n = 2). After 1, 4 and 24 h of incubation, two samples were taken for each time point and analyzed by Sephadex G-50 size-exclusion chromatography (GE Healthcare Illustra, Little Chalfont, UK). The percentage of protein binding was determined by measuring the column and the eluate with the gamma-counter.
Background: Size exclusion chromatography separates by hydrodynamic size, large species first.

Data set [4] is described as follows: Metabolic stability in vivo and radiometabolites (radio-HPLC of blood, urine, liver, kidney). Also on record: species or system BALB/c mice. On the procedure:
Metabolic biodistribution studies were performed in accordance with the ethical standards of the institution and approved by the Austrian Ministry of Science (BMWFW-66.011/0072-V/3b/2019). These studies were carried out in 5- to 7-week-old female BALB/c mice (n = 3) injected with [^177Lu]Lu-1 via a lateral tail vein. To allow monitoring of the metabolites by radio-HPLC, mice were injected with 30 MBq corresponding to 0.8 nmol total peptide. The mice were euthanized by cervical dislocation after different time points of 10 min, 30 min and 1 h p.i. and the urine and a venous blood sample were collected at the time of sacrifice. Liver and kidneys were dissected and homogenized in 20 mM HEPES buffer pH 7.3 at a ratio of 1:1 (v/v) with an Ultra-Turrax T8 homogenizer (IKA-Werke, Staufen, Germany) for 1 min at RT. Before radio-HPLC analysis, the samples (except urine) were treated with ACN at a ratio of 1:1 (v/v) to precipitate proteins, centrifuged at 2000× g for 2 min and diluted with water at a ratio of 1:1 (v/v). For HPLC analysis of the samples, the analytical HPLC system described above with a flow rate of 1 mL/min was used together with the following optimized water/ACN/0.1% TFA gradient to allow a better separation of [^177Lu]Lu-1 and the different radiometabolites: 0–7 min 1–7% ACN, 7–8 min 7–10% ACN, 8–18 min 10–18% ACN, 18–20 min 18–32% ACN, 20–27 min 32% ACN, 27–37 min […], 37–40 min 80% ACN, 40–40.1 min 80–1% ACN, 40.1–45 min 1% ACN. Urine was measured with the low-sensitivity loop of the radiodetector. The remaining samples were analyzed with the high-sensitivity loop due to the lower radioactivity present in blood, liver and kidney homogenate. To quantify the percentage of intact [^177Lu]Lu-1 and [^177Lu]Lu-M1 showing some overlap in the radiochromatogram when using the high-sensitivity loop of the radiodetector, the two radiopeptides were co-injected at different known ratios to enable a more accurate separation and integration of the two peaks (see supporting Figure S4). Mice from the metabolic biodistribution studies were subjected to a further dissection of all remaining tissues (blood, lung, heart, femur, spleen, muscle, intestine, pancreas and stomach). All organs, also including liver and kidneys, were weighed, and their radioactivity was measured in the gamma counter together with a standard and the residual body. To quantify the uptake of radioactivity in liver and kidneys, a part of liver and kidney homogenate was measured in the gamma counter to extrapolate the radioactivity for the whole organ.

Data set [5] concerns neprylisin-1 and neprylisin-2. Briefly: Incubation in vitro with neprylisin-1 and neprylisin-2. The settings on record: cited from earlier work.
The subject of another data set is A431-CCK2R xenografts. The settings on record: mouse, in vivo; cited from earlier work.
Details of data set [6]: method as in PMID 29896292. The settings on record: radiolabeled with different radiometals; cited from earlier work.
On the set-up of data set [7]: method as in doi:10.2174/1874471010902040304. As to conditions: kidney homogenate; labeled with indium-111; cited from earlier work.
Another data set in a line: fresh human serum. As to conditions: 37 °C, up to 24 h.
Data set [8] can be described thus: blood of BALB/c mice injected with [^177Lu]Lu-1. As to conditions: female BALB/c mice, up to 1 h p.i.
Data set [9] in a line: urine of BALB/c mice injected with [^177Lu]Lu-1. The settings on record: female BALB/c mice, up to 1 h p.i.
Data set [10] can be described thus: soluble phase extracted from liver homogenate of BALB/c mice injected with [^177Lu]Lu-1. The settings on record: female BALB/c mice, up to 1 h p.i.
Data set [11] in a line: soluble phase extracted from kidney homogenate of BALB/c mice injected with [^177Lu]Lu-1. The settings on record: female BALB/c mice, up to 1 h p.i.
Data set [12] in a line: blood of patients injected with ^111In-labeled DOTA-MG11. The settings on record: up to 10 min after injection; cited from earlier work.
The mark [13] stands for this setting: blood, 30 min p.i., mice injected i.v. with [177Lu]Lu-1.
[14] abbreviates: blood, 60 min p.i., mice injected i.v. with [177Lu]Lu-1.
[15] abbreviates: blood, different time points up to 1 h p.i.

Consider `CCCC[C@@H](C(=O)N[C@@H](CC(=O)O)C(=O)O)N(C)C(=O)[C@H](Cc1c[nH]c2ccccc12)NC(=O)CNC(=O)[C@H](Cc1ccc(O)cc1)NC(=O)[C@@H]1CCCN1C(=O)[C@@H](CCC(=O)O)NC(=O)CN1CCN(CC(=O)O)CCN(CC(=O)O)CCN(CC(=O)O)CC1` [[^177Lu]Lu-M2, metal not drawn] ({DOTA}-[dE]PYGW[NMeNle]D-OH; C-terminus assumed), for which, in [1], the intact radiopeptide is given as 98.1 ± 0.3%. Also, the logD – broadly, lipophilicity at a set pH, counting ionised and neutral species – in data set [2] is -4.18 ± 0.17. For the same compound, the fraction unbound (as a rule, free concentration divided by total concentration) in data set [3] is 0.519. For the same compound, the “percentage of intact radiopeptide / radiometabolite” value was 3.8% in [4] (setting [13]); 7.3% in [4] (setting [14]); 20.7% in [4] (kidney, 30 min p.i.); 12% and 12.3% in data set [4] (kidney, 60 min p.i.); 7.2% in data set [4] (liver, 30 min p.i.); 6.9% in data set [4] (liver, 60 min p.i.). For the same compound, the “percentage of intact radiopeptide / radiometabolite” value in data set [4] (urine, 30 min p.i.) stood at 40.5%; in [4] (urine, 60 min p.i.) it was 40.3%. Also, the amount of radiometabolite in [4] (setting [15]) is given as below 8%; in data set [4] (urine, time point not stated), ~ 40%.
As to `CCCC[C@@H](C(=O)O)N(C)C(=O)[C@H](Cc1c[nH]c2ccccc12)NC(=O)CNC(=O)[C@H](Cc1ccc(O)cc1)NC(=O)[C@@H]1CCCN1C(=O)[C@@H](CCC(=O)O)NC(=O)CN1CCN(CC(=O)O)CCN(CC(=O)O)CCN(CC(=O)O)CC1` [[^177Lu]Lu-M3, metal not drawn] ({DOTA}-[dE]PYGW[NMeNle]-OH; C-terminus assumed), the results for the intact radiopeptide in data set [1] and in [1] (listed as radiolabeled M3) were 29.7 ± 0.8% and “less than 30%”, respectively. Further, the logD in data set [2] is -4.13 ± 0.11. In data set [3], this compound had a fraction unbound of 0.766. Also, the “percentage of intact radiopeptide / radiometabolite” value was determined as 17.0% in data set [4] (setting [13]); 20.4% in data set [4] (setting [14]); 7.9% in data set [4] (kidney, 30 min p.i.); 8.5% in [4] (liver, 30 min p.i.); 5.6% in data set [4] (liver, 60 min p.i.); 9.5% in [4] (urine, 30 min p.i.). For the same compound, the “percentage of intact radiopeptide / radiometabolite” value in data set [4] (urine, 60 min p.i.) worked out at 9.8%. The amount of radiometabolite in data set [4] (setting [15]) was below 21%.
In the case of “DOTA-(DGlu)6-Ala-Tyr-Gly-Trp-Met-Asp-Phe-NH2”, the cleaved bond result in data set [5] was “Asp-Phe”.
For the compound “DOTA-(DGlu)6-Ala-Tyr-Gly-Trp-Met-Asp-Phe-NH2 (AYGWMDF; DOTA-(D-Glu)6 N-terminus, C-amide; radiolabel; printed: Ala-Tyr-Gly-Trp-Met-Asp-Phe-) [PP-F11]”, the tumor uptake in the data set with A431-CCK2R xenografts is recorded as ~ 6.7 % IA/g.
On to “DOTA-(DGlu)6-Ala-Tyr-Gly-Trp-Nle-Asp-Phe-NH2”, for which the not cleaved entry in [5] is recorded as “seemed to be resistant against neprylisins”.
For the compound “DOTA-(DGlu)6-Ala-Tyr-Gly-Trp-Nle-Asp-Phe-NH2 [PP-F11N]”, the tumor uptake in the data set on A431-CCK2R xenografts is recorded as 6.9 % IA/g.
“DOTA-DGlu-Ala-Tyr-Gly-Trp-(N-Me)Nle-Asp-1Nal-NH2 [DOTA-MGS5]”: the cell uptake in [6] is on record as above 50%. For the same compound, the tumor-to-kidney ratio in the data set on A431-CCK2R xenografts is 4–6.
Take “DOTA-DGlu-Ala-Tyr-Gly-Trp-Met-Asp-Phe-NH2 ({DOTA}-[dE]AYGWMDF-NH2; also: 111In complex) [DOTA-MG11, truncated MG analog, results quoted for the indium-111 labeled form]”: the “time to complete degradation” value in data set [7] is recorded as at most 10 min.
Compound DOTA-DGlu-Pro-Tyr-Gly-Trp-(N-Me)Nle-Asp yielded a not cleaved in “fresh human serum” of 98.1 ± 0.3% after 24 h incubation.
As to “DOTA-DGlu-Pro-Tyr-Gly-Trp-(N-Me)Nle-Asp-1Nal-NH2”, the not cleaved in “fresh human serum” is given as 96.2 ± 1.3% intact peptide after 24 h incubation; in data set [8], “M8 not found in any of the tissues examined”; in data set [9], “M8 not found in any of the tissues examined”; in data set [10], “M8 not found in any of the tissues examined”; in [11], “M8 not found in any of the tissues examined”. The cleaved bond was 1Nal-NH2, minor and Asp-1Nal, minor and (N-Me)Nle-Asp, minor and Gly-Trp, minor in data set [8]; 1Nal-NH2, minor and Asp-1Nal, major and (N-Me)Nle-Asp and Gly-Trp, major in [9]; 1Nal-NH2 and Asp-1Nal and (N-Me)Nle-Asp and Trp-(N-Me)Nle, minor and Gly-Trp and Tyr-Gly in data set [10]; 1Nal-NH2 and Asp-1Nal and (N-Me)Nle-Asp and Gly-Trp and Tyr-Gly and Pro-Tyr, minor, 60 min in [11].
{DOTA}-[dE]AYGWMDF-NH2: in data set [12], the fragment found result is on record as “DOTA-DGlu-Ala-Tyr, 10 min after injection”. The cleaved bond entry in [5] is given as “Asp-Phe; also recorded: Gly-Trp”.
In “fresh human serum”, {DOTA}-[dE]PYGW showed a not cleaved of 98.4 ± 0.01% after 24 h incubation.
